Target: T1, strychnine insensitive glycine binding site located on the NMDA receptor complex (Rattus norvegicus, UniProt P35439)
T1 construct: determined using the procedure of Kishimoto H. et al J. Neurochem 1981, 37, 1015-1024; from tissue
Experiment: biochemical
Settings: not given

Structure (SMILES)	Ki
O=C(/C=C1\CC(C(=O)[O-])Nc2cc(Cl)ccc21)Nc1ccccc1.[Na+] (racemic) [Example 2, (+/-)(E)7-Chloro-4-Phenylcarbamoylmethylene-1,2,3,4-Tetrahydro-Quinoline-2- Carboxylic Acid Sodium Salt]	39.8 nM

Same assay, conditions: strychnine insensitive glycine binding site; read-out: pKi (converted)

Structure (SMILES)	Ki
O=C(/C=C1\CC(C(=O)O)Nc2cc(Cl)cc(Cl)c21)Nc1ccc(CN2CCOCC2)cc1 (racemic) [Example 14, (+/-)(E)-5,7-Dichloro-4-(4-Morpholin-4-Ylmethyl-Phenylcarbamoylmethylene)-1,2,3,4-Tetrahydro-Quinoline-2-Carboxylic Acid]	7.94 nM
O=C(/C=C1\CC(C(=O)[O-])Nc2cc(Cl)cc(Cl)c21)Nc1ccccc1.[Na+] (racemic) [Sodium Salt]	6.31 nM
CC(=O)NCCc1ccc(NC(=O)/C=C2\CC(C(=O)O)Nc3cc(Cl)cc(Cl)c32)cc1 (racemic) [Example 18, (+/-)(E)-5,7-Dichloro-4-[4-(2-Acetylamino-Ethyl)Phenylcarbamoylmethylene]-1,2,3,4-Tetrahydro-Quinoline-2-Carboxylic Acid]	12.6 nM
O=CNCc1ccc(NC(=O)/C=C2\CC(C(=O)O)Nc3cc(Cl)cc(Cl)c32)cc1 (racemic) [Example 10, (+/-)(E)-5,7-Dichloro-4-[4(Formylaminomethyl)Phenylcarbomoylmethylene]-1,2,3,4-Tetrahydro-Quinoline-2-Carboxylic Acid]	5.01 nM
O=C(O)Cc1ccc(NC(=O)/C=C2\CC(C(=O)O)Nc3cc(Cl)cc(Cl)c32)cc1 (racemic) [Example 15, (+/-)(E)-4-(4-Carboxymethyl-Phenylcarbamoylmethylene)-5,7-Dichloro-1,2,3,4-Tetrahydro-Quinoline-2-Carboxylic Acid]	19.1 nM
CC(=O)Nc1ccc(NC(=O)/C=C2\CC(C(=O)O)Nc3cc(Cl)cc(Cl)c32)cc1 (racemic) [Example 5, (+/-)(E)-4-(4-Acetylamino-Phenylcarbamoylmethylene)-5,7-Dichloro-1,2,3,4-Tetrahydro-Quinoline-2-Carboxylic Acid]	7.94 nM
Nc1ccc(NC(=O)/C=C2\CC(C(=O)O)Nc3cc(Cl)cc(Cl)c32)cc1 (racemic) [Example 8, (+/-)(E)-4-(4-Amino-Phenylcarbamoylmethylene)-5,7-Dichloro-1,2,3,4-Tetrahydro-Quinoline-2-Carboxylic Acid]	15.8 nM
NC(=O)Cc1ccc(NC(=O)/C=C2\CC(C(=O)O)Nc3cc(Cl)cc(Cl)c32)cc1 (racemic) [Example 16, (+/-)(E)-5,7-Dichloro-4-(4-Carbamoylmethyl-Phenylcarbamoylmethylene)-1,2,3,4-Tetrahydro-Quinoline-2-Carboxylic Acid]	6.61 nM
O=C(/C=C1\CC(C(=O)O)Nc2cc(Cl)cc(Cl)c21)Nc1cccc(Cl)c1 (racemic) [Example 7, (+/-)(E)-5,7-Dichloro-4-[3-(Chloro)Phenylcarbamoylmethylene]-1,2,3,4-Tetrahydro-Quinoline-2-Carboxylic Acid]	39.8 nM
CC(C)CC(=O)Nc1ccc(NC(=O)/C=C2\CC(C(=O)O)Nc3cc(Cl)cc(Cl)c32)cc1 (racemic) [Example 19, (+/-)(E)-5,7-Dichloro-4-[4-(3-Methyl-Butyrylamino)-Phenylcarbamoylmethylene]-1,2,3,4-Tetrahydro-Quinoline-2-Carboxylic Acid]	18.6 nM
NC(=O)NCc1ccc(NC(=O)/C=C2\CC(C(=O)O)Nc3cc(Cl)cc(Cl)c32)cc1 (racemic) [Example 9, (+/-)(E)-5,7-Dichloro-4-[4(Ureidomethyl)Phenylcarbamoylmethylene]-1,2,3,4-Tetrahydro-Quinoline-2-Carboxylic Acid]	3.98 nM
CC(=O)Nc1cccc(NC(=O)/C=C2\CC(C(=O)O)Nc3cc(Cl)cc(Cl)c32)c1 (racemic) [Example 6, (+/-)(E)-4-(3-Acetylamino-Phenylcarbamoylmethylene)-5,7-Dichloro-1,2,3,4-Tetrahydro-Quinoline-2-Carboxylic Acid]	15.8 nM
CC(=O)NCc1ccc(NC(=O)/C=C2\CC(C(=O)O)Nc3cc(Cl)cc(Cl)c32)cc1 (racemic) [Example 11, (+/-)(E)-5,7-Dichloro-4-[4(Acetylaminomethyl)Phenylcarbomoylmethylene]-1,2,3,4-Tetrahydro-Quinoline-2-Carboxylic Acid]	5.01 nM
CC(C)C(=O)Nc1ccc(NC(=O)/C=C2\CC(C(=O)O)Nc3cc(Cl)cc(Cl)c32)cc1 (racemic) [Example 12, (+/-)(E)-5,7-Dichloro-4-[4(Isobutyrylamino)Phenylcarbomoylmethylene]-1,2,3,4-Tetrahydro-Quinoline-2-Carboxylic Acid]	15.8 nM
CC(C)C(=O)NCCc1ccc(NC(=O)/C=C2\CC(C(=O)O)Nc3cc(Cl)cc(Cl)c32)cc1 (racemic) [Example 17, (+/-)(E)-5,7-Dichloro-4-[4-(2-Isobutyrylamino-Ethyl)Phenylcarbamoylmethylene]-1,2,3,4-Tetrahydro-Quinoline-2-Carboxylic Acid]	12.6 nM
CC(C)C(=O)NCc1ccc(NC(=O)/C=C2\CC(C(=O)O)Nc3cc(Cl)cc(Cl)c32)cc1 (racemic) [Example 13]	15.8 nM
O=C(/C=C1\CC(C(=O)O)Nc2cc(Br)cc(Br)c21)Nc1ccccc1 (racemic) [Example 21, (+/-)-(E)-5,7-Dibromo-4-Phenylcarbamoylmethylene-1,2,3,4-Tetrahydroquinoline-2-Carboxylic Acid]	26.3 nM

Test system: NMDA induced convulsions in mice
Experiment: Inhibition of NMDA induced convulsions in the mouse (procedure of Chiamulera C et al.)
Format: in vivo
Settings: iv, read-out: ED50 (dose required to protect 50% of the animals from the convulsive action of the NMDA)
Text: In this test the ability of the compound when administered iv to inhibit the generalized seizures induced by an intracerebroventricular injection of NMDA in mice was examined at a number of dose levels.

Structure (SMILES)	ED50
O=C(/C=C1\CC(C(=O)[O-])Nc2cc(Cl)cc(Cl)c21)Nc1ccccc1.[Na+] (racemic)	1 mg/kg

Same assay, conditions: mice, compound iv, generalized seizures induced by intracerebroventricular injection of NMDA, read-out: ED50 (dose required to protect 50% of the animals from the convulsive action of the NMDA)

Structure (SMILES)	ED50
O=C(/C=C1\CC(C(=O)[O-])Nc2cc(Cl)ccc21)Nc1ccccc1.[Na+] (racemic) [Example 2, (+/-)(E)7-Chloro-4-Phenylcarbamoylmethylene-1,2,3,4-Tetrahydro-Quinoline-2- Carboxylic Acid Sodium Salt]	0.2 mg/kg
CC(=O)Nc1ccc(NC(=O)/C=C2\CC(C(=O)O)Nc3cc(Cl)cc(Cl)c32)cc1 (racemic) [Example 5, (+/-)(E)-4-(4-Acetylamino-Phenylcarbamoylmethylene)-5,7-Dichloro-1,2,3,4-Tetrahydro-Quinoline-2-Carboxylic Acid]	0.2 mg/kg

Source: patent publication US5977136A, “Tetrahydroquinolines as NMDA antagonists” (Glaxo Wellcome SpA, priority 1995, dated 1999)
